Measurements: patent publication US20260070924A1, “INDAZOLE MACROCYCLES AND THEIR USE” (BLOSSOMHILL THERAPEUTICS, INC., priority 2022, published 2026)

Assays:
Type in all cases: cell-based
[1] = test system: BaF3 FLT3-ITD/D835V; test: Cell proliferation panel (CellTiter-Glo 2.0, 5 days); settings: murine pro-B cell line expressing FLT3-ITD/D835V
Source text: (§1) Ba/F3 cells were purchased from DSMZ. The FLT3-ITD gene was synthesized at GenScript and cloned into pCDH-CMV-MCS-EF1-Puro plasmid (System Biosciences, Inc). FLT3-ITD/D835V and FLT3-ITD/F691L cDNA clones were made at GenScript by PCR and confirmed by sequence. Ba/F3 FLT3-ITD, FLT3-ITD/D835V and FLT3-ITD/F691L cell lines were generated by infecting Ba/F3 cells with lentivirus containing FLT3-ITD, FLT3-ITD/D835V or FLT3-ITD/F691L genes. Stable cell lines were selected by puromycin treatment, followed by IL-3 withdrawal.
(§2) Cell proliferation assay was carried out in a panel of 108 cell lines. 1000 (attached cells) or 3000 (suspension cells) cells/100 μl per well were seeded in 96 well black plate with a clear bottom (Corning #3904). Compounds were added using Tecan D300e Digital Dispenser in 1:3 titration for 9 doses. Plates were incubated for 5 days at 37° C. and 5% CO2. Cell proliferation was measured using CellTiter-Glo 2.0 luciferase-based ATP detection assay (Promega, Madison, WI) at 50 μl per well following the manufacturer's protocol. Plates were then read on a TECAN Sparks multimode microplate reader. Data was analyzed using GraphPad Prism 9 (GraphPad Software, San Diego, CA) to obtain IC50 values. IC50 values were determined using Prism software (GraphPad Software, San Diego, CA).

[2] = test system: BaF3 FLT3-ITD/F691L; test: as above; settings: murine pro-B cell line expressing FLT3-ITD/F691L
Source text: as §1, §2

[3] = test system: BaF3 FLT3-ITD; test: as above; settings: murine pro-B cell line expressing FLT3-ITD
Source text: as §1, §2

[4] = test system: BaF3; test: as above; settings: murine IL-3 dependent pro-B cell line, with 1 ng/mL mouse IL-3
Source text: as §1, §2

[5] = test system: AGS; test: as above; settings: Gastric adenocarcinoma
Method: as §2

[6] = test system: BT-474; test: as above; settings: Mammary gland ductal carcinoma
Method: as §2

[7] = test system: CAPAN2; test: as above; settings: Pancreatic adenocarcinoma
Method: as §2

[8] = test system: COLO320; test: as above; settings: Colorectal adenocarcinoma
Method: as §2

[9] = test system: COR-L23; test: as above; settings: Large cell lung carcinoma
Method: as §2

[10] = test system: EOL-1; test: as above; settings: Chronic eosinophilic leukemia
Method: as §2

[11] = test system: H441; test: as above; settings: Lung adenocarcinoma NSCLC
Method: as §2

[12] = test system: H526; test: as above; settings: Small cell lung cancer
Method: as §2

[13] = test system: H727; test: as above; settings: Bronchial lung carcinoid
Method: as §2

[14] = test system: HCC1569; test: as above; settings: Mammary gland metaplastic carcinoma
Method: as §2

[15] = test system: HPAC; test: as above; settings: Pancreatic carcinoma
Method: as §2

[16] = test system: IMR-32; test: as above; settings: Neuroblastoma
Method: as §2

[17] = test system: KASUMI-4; test: as above; settings: Chronic Myeloblastic Leukemia
Method: as §2

[18] = test system: KG-1; test: as above; settings: Acute myelogenous leukemia
Method: as §2

[19] = test system: KP-N-RT-BM-1; test: as above; settings: Neuroblastoma
Method: as §2

[20] = test system: LS180; test: as above; settings: Colorectal adenocarcinoma
Method: as §2

[21] = test system: LS513; test: as above; settings: Colorectal carcinoma
Method: as §2

[22] = test system: MCF7; test: as above; settings: Breast adenocarcinoma
Method: as §2

[23] = test system: MFM-223; test: as above; settings: Breast carcinoma
Method: as §2

[24] = test system: NB-1; test: as above; settings: Neuroblastoma
Method: as §2

[25] = test system: PA-1; test: as above; settings: Ovary Teratocarcinoma
Method: as §2

[26] = test system: SK-BR-3; test: as above; settings: Breast adenocarcinoma
Method: as §2

[27] = test system: SW403; test: as above; settings: Colorectal adenocarcinoma
Method: as §2

[28] = test system: SW620; test: as above; settings: Colorectal adenocarcinoma
Method: as §2

[29] = test system: T47D; test: as above; settings: Mammary gland ductal carcinoma
Method: as §2

[30] = test system: TOV-112D; test: as above; settings: Endometrioid ovarian cancer
Method: as §2

[31] = test system: U87 MG; test: as above; settings: Glioblastoma
Method: as §2

[32] = test system: ZR-75-1; test: as above; settings: Mammary gland ductal carcinoma
Method: as §2

[33] = test system: BCLxS/xL; test: Alternative splicing ratio by qPCR in MV-4-11; settings: DMSO = 1
Method: Alternative splicing ratio of RNA transcripts was measured by qPCR in MV-4-11 and MOLM-13 cell lines. Cells were plated in 24 well plates at 1 million cells per well and then treated with compounds at different concentrations, with DMSO only as control. […] Total RNA was extracted using the RNA Purification Kit (Invitrogen). 2 μg of RNA was used for cDNA synthesis using cDNA synthesis kit (ThermoFisher) and 20 ng of cDNA was used for qPCR using PROFLEX 96-Well PCR System (ThermoFisher).
• BCLxS/xL (SYBR Green, IDT)

IC50 [1]: 1.3 nM
IC50 [2]: 22.9 nM
IC50 [3]: 0.55 nM
IC50 [4]: 513 nM
IC50 [5]: 87.9 nM
IC50 [6]: 278 nM
IC50 [8]: 85.2 nM
IC50 [11]: 91.1 nM
IC50 [12]: 75.5 nM
IC50 [14]: 151 nM
IC50 [22]: 75.9 nM
IC50 [26]: 38.8 nM
IC50 [27]: 18 nM
IC50 [28]: 76.5 nM
IC50 [29]: 114 nM
IC50 [31]: 89.2 nM
SMILES: CCc1nn(C)c2c1/C=C/c1n[nH]c3ccc(cc13)-c1cnn(C)c1OCCN(C)C2=O [Ex. 6, (17E)-16-ethyl-8,12,14-trimethyl-2,11,12,14-tetrahydro-8H-3,5-ethenotripyrazolo[3,4-f:3′,4′-j:4″,3″-n][1,4]oxazacyclopentadecin-13(10H)-one]
IC50 [7]: 365 nM
IC50 [9]: 98.4 nM
IC50 [10]: 18.9 nM
IC50 [13]: 100 nM
IC50 [15]: 79.1 nM
IC50 [16]: 11.2 nM
IC50 [17]: 11.2 nM
IC50 [18]: 153 nM
IC50 [19]: 15.1 nM
IC50 [20]: 82.7 nM
IC50 [21]: 30.1 nM
IC50 [23]: 36.8 nM
IC50 [24]: 45 nM
IC50 [25]: 48 nM
IC50 [30]: 62.5 nM
IC50 [32]: 144 nM
Alternative Splicing Ratio BCL-xS/xL 6-hour ([33]; MV-4-11, 2 nM): 0.7
Alternative Splicing Ratio BCL-xS/xL 24-hour ([33]; MV-4-11, 2 nM): 0.6
Alternative Splicing Ratio BCL-xS/xL 6-hour ([33]; MV-4-11, 10 nM): 1.1
Alternative Splicing Ratio BCL-xS/xL 24-hour ([33]; MV-4-11, 10 nM): 0.9
Alternative Splicing Ratio BCL-xS/xL 6-hour ([33]; MV-4-11, 50 nM): 1.4
Alternative Splicing Ratio BCL-xS/xL 24-hour ([33]; MV-4-11, 50 nM): 1.3
Alternative Splicing Ratio BCL-xS/xL 6-hour ([33]; MV-4-11, 250 nM): 3.7
Alternative Splicing Ratio BCL-xS/xL 24-hour ([33]; MV-4-11, 250 nM): 7.3
